# From patent US10239843B2 (CANCER RESEARCH TECHNOLOGY LIMITED, priority 2014, dated 2019)
# Where two headings read alike, the source gives them in different places.
# Key:
# PARG in HeLa cell line = test: PARG cell assay (PAR chain immunofluorescence after MMS); format: cell-based; conditions: HeLa cells, MMS treatment, read-out: PARG Cell IC50
# In short: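 Nuclear poly(ADP-ribose) chains in HeLa cells are read by indirect immunofluorescence with a mouse anti-PAR antibody applied overnight at 4° C after fixing and permeabilising. Cells get 1 h of compound, then 50 μg/mL MMS (final) for another hour. PAR persisting at that point reflects PARG inhibition.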
# Human Full Length PARG = Human Full Length PARG (Homo sapiens (Human), UniProt Q86W56); test: PARG enzyme assay (TR-FRET); format: biochemical; conditions: read-out: PARG Biochem IC50
# Chain of Human Full Length PARG (Q86W56 whole entry): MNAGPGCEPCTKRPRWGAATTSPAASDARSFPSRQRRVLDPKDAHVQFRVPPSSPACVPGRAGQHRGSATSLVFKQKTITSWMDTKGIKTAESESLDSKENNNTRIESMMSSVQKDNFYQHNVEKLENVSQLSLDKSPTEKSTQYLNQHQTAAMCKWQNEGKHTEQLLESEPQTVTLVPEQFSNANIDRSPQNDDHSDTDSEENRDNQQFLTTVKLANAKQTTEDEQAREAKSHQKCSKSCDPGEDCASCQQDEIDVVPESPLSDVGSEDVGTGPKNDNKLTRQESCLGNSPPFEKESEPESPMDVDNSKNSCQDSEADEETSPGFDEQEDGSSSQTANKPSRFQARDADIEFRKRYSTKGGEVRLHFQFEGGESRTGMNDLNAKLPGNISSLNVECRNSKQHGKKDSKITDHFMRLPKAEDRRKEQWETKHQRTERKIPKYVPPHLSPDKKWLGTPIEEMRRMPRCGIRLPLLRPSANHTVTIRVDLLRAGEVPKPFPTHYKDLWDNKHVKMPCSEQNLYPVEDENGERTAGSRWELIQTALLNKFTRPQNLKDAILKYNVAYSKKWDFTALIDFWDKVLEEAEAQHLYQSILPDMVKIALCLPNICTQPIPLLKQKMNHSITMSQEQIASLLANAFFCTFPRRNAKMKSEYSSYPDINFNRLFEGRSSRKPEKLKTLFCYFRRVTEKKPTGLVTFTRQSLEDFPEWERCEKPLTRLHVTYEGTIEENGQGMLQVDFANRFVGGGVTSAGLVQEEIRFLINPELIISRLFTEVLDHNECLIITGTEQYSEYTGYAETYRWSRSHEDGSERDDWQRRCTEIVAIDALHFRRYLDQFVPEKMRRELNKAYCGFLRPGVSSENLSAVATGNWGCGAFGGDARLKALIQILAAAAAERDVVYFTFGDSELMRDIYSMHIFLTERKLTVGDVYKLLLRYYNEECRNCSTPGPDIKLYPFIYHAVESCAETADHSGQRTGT
IC50 (PARG in HeLa cell line; Homo sapiens),IC50 (Human Full Length PARG),IC50 (PARG in HeLa cell line),SMILES
0.53 µM,0.17 µM,–,"Cn1cc(Cn2c(=O)c3cc(S(=O)(=O)NC4(CF)CC4)ccc3n(CCC#N)c2=O)cn1 [Example 574, 1-(2-Cyanoethyl)-N-[1-(fluoromethyl)cyclopropyl]-3-[(1-methylpyrazol-4-yl)methyl]-2,4-dioxo-quinazoline-6-sulfonamide]"
1.57 µM,0.088 µM,–,"Cn1cc(Cn2c(=O)c3cc(S(=O)(=O)NC4(CF)CC4)ccc3n(Cc3c[nH]cn3)c2=O)cn1 [Example 575, N-[1-(Fluoromethyl)cyclopropyl]-1-(1H-imidazol-4-ylmethyl)-3-[(1-methylpyrazol-4-yl)methyl]-2,4-dioxo-quinazoline-6-sulfonamide]"
2.16 µM,0.042 µM,–,"CCn1cncc1Cn1c(=O)n(Cc2cnn(C)c2)c(=O)c2cc(S(=O)(=O)NC3(CF)CC3)ccc21 [Example 576, 1-[(3-Ethylimidazol-4-yl)methyl]-N-[1-(fluoromethyl)cyclopropyl]-3-[(1-methylpyrazol-4-yl)methyl]-2,4-dioxo-quinazoline-6-sulfonamide]"
–,0.024 µM,0.036 µM,"Cn1cc(Cn2c(=O)c3cc(S(=O)(=O)NC4(CF)CC4)ccc3n(Cc3cnsc3)c2=O)cn1 [Example 577, N-[1-(Fluoromethyl)cyclopropyl]-1-(isothiazol-4-ylmethyl)-3-[(1-methylpyrazol-4-yl)methyl]-2,4-dioxo-quinazoline-6-sulfonamide]"
0.046 µM,0.069 µM,–,"Cc1nc(Cn2c(=O)n(Cc3cnn(C)c3)c(=O)c3cc(S(=O)(=O)NC4(CF)CC4)ccc32)co1 [Example 580, N-[1-(Fluoromethyl)cyclopropyl]-1-[(2-methyloxazol-4-yl)methyl]-3-[(1-methylpyrazol-4-yl)methyl]-2,4-dioxo-quinazoline-6-sulfonamide]"
–,0.057 µM,0.055 µM,"Cn1cc(Cn2c(=O)c3cc(S(=O)(=O)NC4(CF)CC4)ccc3n(Cc3cscn3)c2=O)cn1 [Example 581, N-[1-(Fluoromethyl)cyclopropyl]-3-[(1-methylpyrazol-4-yl)methyl]-2,4-dioxo-1-(thiazol-4-ylmethyl)quinazoline-6-sulfonamide]"
0.073 µM,0.16 µM,–,"Cc1nc(Cn2c(=O)n(Cc3cnn(C)c3)c(=O)c3cc(S(=O)(=O)NC4(CF)CC4)ccc32)cs1 [Example 582, N-[1-(Fluoromethyl)cyclopropyl]-3-[(1-methylpyrazol-4-yl)methyl]-1-[(2-methylthiazol-4-yl)methyl]-2,4-dioxo-quinazoline-6-sulfonamide]"
0.153 µM,0.093 µM,–,"Cc1nnc(Cn2c(=O)n(Cc3cnn(C)c3)c(=O)c3cc(S(=O)(=O)NC4(CF)CC4)ccc32)s1 [Example 583, N-[1-(Fluoromethyl)cyclopropyl]-3-[(1-methylpyrazol-4-yl)methyl]-1-[(5-methyl-1,3,4-thiadiazol-2-yl)methyl]-2,4-dioxo-quinazoline-6-sulfonamide]"
–,0.171 µM,25.8 µM,"Cn1cc(Cn2c(=O)c3cc(S(=O)(=O)NC4(CF)CC4)ccc3n(Cc3nncn3C)c2=O)cn1 [Example 584, N-[1-(Fluoromethyl)cyclopropyl]-3-[(1-methylpyrazol-4-yl)methyl]-1-[(4-methyl-1,2,4-triazol-3-yl)methyl]-2,4-dioxo-quinazoline-6-sulfonamide]"
0.052 µM,0.038 µM,–,"Cn1cc(Cn2c(=O)c3cc(S(=O)(=O)NC4(CF)CC4)ccc3n(Cc3ccno3)c2=O)cn1 [Example 585, N-[1-(Fluoromethyl)cyclopropyl]-1-(isoxazol-5-ylmethyl)-3-[(1-methylpyrazol-4-yl)methyl]-2,4-dioxo-quinazoline-6-sulfonamide]"
0.53 µM,0.082 µM,–,"Cn1cc(Cn2c(=O)c3cc(S(=O)(=O)NC4(CF)CC4)ccc3n(Cc3cc[nH]n3)c2=O)cn1 [Example 586, N-[1-(Fluoromethyl)cyclopropyl]-3-[(1-methylpyrazol-4-yl)methyl]-2,4-dioxo-1-(1H-pyrazol-3-ylmethyl)quinazoline-6-sulfonamide]"
7.98 µM,0.207 µM,–,"Cn1cc(Cn2c(=O)c3cc(S(=O)(=O)NC4(CF)CC4)ccc3n(Cc3nc[nH]n3)c2=O)cn1 [Example 587, N-[1-(Fluoromethyl)cyclopropyl]-3-[(1-methylpyrazol-4-yl)methyl]-2,4-dioxo-1-(1H-1,2,4-triazol-3-ylmethyl)quinazoline-6-sulfonamide]"
1.5 µM,0.019 µM,–,"Cn1cc(Cn2c(=O)c3cc(S(=O)(=O)NC4(CF)CC4)ccc3n(Cc3cncn3C)c2=O)cn1 [Example 588, N-[1-(Fluoromethyl)cyclopropyl]-1-[(3-methylimidazol-4-yl)methyl]-3-[(1-methylpyrazol-4-yl)methyl]-2,4-dioxo-quinazoline-6-sulfonamide]"
0.187 µM,0.055 µM,–,"Cn1cc(Cn2c(=O)c3cc(S(=O)(=O)NC4(CF)CC4)ccc3n(Cc3nncs3)c2=O)cn1 [Example 589, N-[1-(Fluoromethyl)cyclopropyl]-3-[(1-methylpyrazol-4-yl)methyl]-2,4-dioxo-1-(1,3,4-thiadiazol-2-ylmethyl)quinazoline-6-sulfonamide]"
0.773 µM,0.03 µM,–,"Cn1cc(Cn2c(=O)c3cc(S(=O)(=O)NC4(CF)CC4)ccc3n(Cc3cn[nH]c3)c2=O)cn1 [Example 590, N-[1-(Fluoromethyl)cyclopropyl]-3-[(1-methylpyrazol-4-yl)methyl]-2,4-dioxo-1-(1H-pyrazol-4-ylmethyl)quinazoline-6-sulfonamide]"
0.032 µM,0.03 µM,–,"Cc1cc(Cn2c(=O)n(Cc3cnn(C)c3)c(=O)c3cc(S(=O)(=O)NC4(CF)CC4)ccc32)sn1 [Example 591, N-[1-(Fluoromethyl)cyclopropyl]-1-[(3-methylisothiazol-5-yl)methyl]-3-[(1-methylpyrazol-4-yl)methyl]-2,4-dioxo-quinazoline-6-sulfonamide]"
11.4 µM,0.3 µM,–,"Cc1n[nH]c(Cn2c(=O)n(Cc3cnn(C)c3)c(=O)c3cc(S(=O)(=O)NC4(CF)CC4)ccc32)n1 [Example 592, N-[1-(Fluoromethyl)cyclopropyl]-3-[(1-methylpyrazol-4-yl)methyl]-1-[(3-methyl-1H-1,2,4-triazol-5-yl)methyl]-2,4-dioxo-quinazoline-6-sulfonamide]"
–,0.112 µM,0.523 µM,"Cn1cc(Cn2c(=O)c3cc(S(=O)(=O)NC4(CF)CC4)ccc3n(Cc3cn(C)nn3)c2=O)cn1 [Example 593, N-[1-(Fluoromethyl)cyclopropyl]-3-[(1-methylpyrazol-4-yl)methyl]-1-[(1-methyltriazol-4-yl)methyl]-2,4-dioxo-quinazoline-6-sulfonamide]"
0.022 µM,0.025 µM,–,"Cc1ncc(Cn2c(=O)n(Cc3cnn(C)c3)c(=O)c3cc(S(=O)(=O)NC4(CF)CC4)ccc32)s1 [Example 594, N-[1-(Fluoromethyl)cyclopropyl]-3-[(1-methylpyrazol-4-yl)methyl]-1-[(2-methylthiazol-5-yl)methyl]-2,4-dioxo-quinazoline-6-sulfonamide]"
0.134 µM,0.048 µM,–,"Cn1cc(Cn2c(=O)c3cc(S(=O)(=O)NC4(CF)CC4)ccc3n(Cc3cnn(C)c3)c2=O)cn1 [Example 595, N-[1-(Fluoromethyl)cyclopropyl]-1,3-bis[(1-methylpyrazol-4-yl)methyl]-2,4-dioxo-quinazoline-6-sulfonamide]"
